These results are taken from ChEMBL document CHEMBL1201862, “PubChem BioAssay data set” (2004).

Test systems include SNB-75; K562; SNB-19; HCT-15; IGROV-1; SK-MEL-5; SK-MEL-2; KM12; UO-31; MOLT-4; CCRF-CEM; M14; SK-MEL-28; OVCAR-8; OVCAR-3; HCT-116; SK-OV-3; OVCAR-4; HCC 2998; SW-620.
What all share (assay): NCI anticancer screen, dose series, 48 h

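Five concentrations, 48 hours, 96-well plates. GI50 is the concentration that inhibits growth by half.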 The source made the active and inactive calls. Rule as the data show it: active = GI50 up to about 1.1 µM and inactive = higher. A value given as a limit tells only on which side of the number the result lay.

For `C[C@H]1S[C@@H](c2ccc(Cl)cc2Cl)N(NC(=O)c2ccncc2)C1=O`, the GI50 with SNB-75 was 80.5 µM (inactive); in the assay on K562 it was 28.1 µM (inactive); with SNB-19, 62.4 µM (inactive); in the assay with HCT-15, 47.9 µM; in the assay with IGROV-1, > 100 µM (inactive); in the assay with SK-MEL-5, 44.8 µM (inactive). Moreover, the GI50 in the assay with SK-MEL-2 is 27.3 µM (inactive); in the assay with KM12, > 100 µM (inactive); in the assay on UO-31, 37 µM (inactive); in the assay with MOLT-4, 18.4 µM (inactive); with CCRF-CEM, 11.3 µM (inactive); with M14, 61.8 µM (inactive). Besides, the GI50 was 45.2 µM (inactive) in the assay on SK-MEL-28; > 100 µM (inactive) in the assay on OVCAR-8; 35.6 µM (inactive) in the assay on OVCAR-3; 34.5 µM (inactive) with HCT-116; > 100 µM (inactive) in the assay with SK-OV-3; > 100 µM (inactive) in the assay on OVCAR-4.

In the case of `OC1CCOc2ccccc21` (stereo unspecified), the GI50 is > 100 µM (inactive) in the assay with K562; > 100 µM (inactive) in the assay on SNB-19; more than 100 µM in the assay with HCT-15; > 100 µM (inactive) in the assay on HCC 2998; > 100 µM (inactive) in the assay on IGROV-1; > 100 µM (inactive) in the assay on SK-MEL-5. Also, the GI50 with SK-MEL-2, in the assay on KM12, in the assay with UO-31, in the assay on MOLT-4, in the assay on CCRF-CEM and in the assay on M14 was > 100 µM (inactive) each time. Further, the GI50 with SK-MEL-28, with SW-620, with OVCAR-8, in the assay with OVCAR-3, in the assay on HCT-116 and in the assay with SK-OV-3 was > 100 µM (inactive) each time. For the same molecule, the GI50 in the assay with OVCAR-4 was > 100 µM (inactive).

For `COc1ccc(C(=O)NNC(=O)c2nsc3ccccc23)cc1`, the GI50 with K562 was 39.4 µM (inactive); with SNB-19, > 100 µM (inactive); with HCT-15, 41.7 µM; with HCC 2998, > 100 µM (inactive); with IGROV-1, > 100 µM (inactive); in the assay with SK-MEL-5 it was > 100 µM (inactive). Besides, the GI50 in the assay on SK-MEL-2 was > 100 µM (inactive); with KM12, > 100 µM (inactive); with UO-31, > 100 µM (inactive); with MOLT-4, 34 µM (inactive); in the assay with CCRF-CEM, 24.7 µM (inactive); in the assay on M14, 85.7 µM (inactive). Further, the GI50 with SK-MEL-28 is > 100 µM (inactive); in the assay with SW-620, > 100 µM (inactive); in the assay with OVCAR-8, 60.1 µM (inactive); in the assay on OVCAR-3, 30.8 µM (inactive); with HCT-116 it was 83.6 µM (inactive); with OVCAR-4, 68.9 µM (inactive).

Consider `CCOC(=O)C1CCn2c(nc3c2c(=O)n(C)c(=O)n3C)S1` (stereo unspecified), for which the GI50 was > 100 µM (inactive) in the assay on SNB-75; > 100 µM (inactive) with K562; > 100 µM (inactive) in the assay with SNB-19; more than 100 µM with HCT-15; > 100 µM (inactive) in the assay with IGROV-1; > 100 µM (inactive) in the assay with SK-MEL-5. Besides, the GI50 in the assay on SK-MEL-2, in the assay on MOLT-4, in the assay on CCRF-CEM, with M14, with SW-620 and in the assay with OVCAR-8 was > 100 µM (inactive) throughout. Also, the GI50 in the assay with OVCAR-3, with HCT-116, in the assay on SK-OV-3 and in the assay on OVCAR-4 was > 100 µM (inactive) each time.

On to `Cc1cc(=O)oc2c1cc1ccc3cccc4ccc2c1c34`, for which the GI50 in the assay with SNB-75 is 41 µM (inactive); in the assay on K562, > 100 µM (inactive); with SNB-19 it was 64.7 µM (inactive); in the assay with HCT-15, more than 100 µM; in the assay with IGROV-1, > 100 µM (inactive); in the assay with SK-MEL-5, > 100 µM (inactive). Further, the GI50 in the assay with SK-MEL-2, with UO-31, with MOLT-4, in the assay on CCRF-CEM, in the assay on M14 and in the assay with SK-MEL-28 was > 100 µM (inactive) throughout. In addition, the GI50 in the assay with SW-620, in the assay on OVCAR-8, with OVCAR-3 and in the assay with SK-OV-3 was > 100 µM (inactive) each time.

Turning to `COP(=O)(OC)C(N)Cc1c[nH]c2ccccc12` (stereo unspecified), the GI50 is > 100 µM (inactive) in the assay with SNB-75; > 100 µM (inactive) in the assay with K562; > 100 µM (inactive) with SNB-19; more than 100 µM in the assay on HCT-15; > 100 µM (inactive) in the assay on HCC 2998; > 100 µM (inactive) in the assay with IGROV-1. The GI50 in the assay with SK-MEL-5, with SK-MEL-2, in the assay on UO-31, with MOLT-4, in the assay on M14 and with SK-MEL-28 was > 100 µM (inactive) throughout. The GI50 in the assay on SW-620, in the assay on OVCAR-8, in the assay on OVCAR-3, with HCT-116, in the assay with SK-OV-3 and in the assay on OVCAR-4 was > 100 µM (inactive) in each case.

With `COc1cc(/C=C2\N=C(c3ccccc3)N(C3Nc4cc5c(cc4S3)NC(N3C(=O)/C(=C/c4cc(OC)c(OC)c(OC)c4)N=C3c3ccccc3)S5)C2=O)cc(OC)c1OC` (stereo unspecified), the GI50 with SNB-75 was > 100 µM (inactive); in the assay on K562 it was 71.9 µM (inactive); in the assay on HCT-15, 57.5 µM; in the assay on HCC 2998, > 100 µM (inactive); with IGROV-1 it was > 100 µM (inactive); in the assay on SK-MEL-5, 64.9 µM (inactive). Moreover, the GI50 in the assay on SK-MEL-2 is > 100 µM (inactive); with KM12, 89.3 µM (inactive); with UO-31 it was 54.1 µM (inactive); in the assay with MOLT-4, 25.9 µM (inactive); in the assay with M14, > 100 µM (inactive); with SK-MEL-28, > 100 µM (inactive). Moreover, the GI50 is > 100 µM (inactive) in the assay with SW-620; 83.9 µM (inactive) in the assay on OVCAR-8; 61 µM (inactive) with OVCAR-3; 77.6 µM (inactive) in the assay with HCT-116; 70.5 µM (inactive) with OVCAR-4.

Turning to `CCOc1ccc2c(C)cc(=O)oc2c1`, the GI50 in the assay with SNB-75 was > 100 µM (inactive); in the assay with K562, > 100 µM (inactive); with SNB-19 it was > 100 µM (inactive); with HCT-15, more than 100 µM; in the assay with HCC 2998, > 100 µM (inactive); in the assay on IGROV-1 it was > 100 µM (inactive). Also, the GI50 in the assay on SK-MEL-5, with SK-MEL-2, with KM12, with UO-31, with MOLT-4 and in the assay with CCRF-CEM was > 100 µM (inactive) throughout. In addition, the GI50 with M14, in the assay with SK-MEL-28, in the assay on SW-620, in the assay on OVCAR-8, in the assay on OVCAR-3 and with HCT-116 was > 100 µM (inactive) in each case. In the assay with OVCAR-4, the GI50 is > 100 µM (inactive).
